Experimental data from patent publication US20250228832A1, “METHODS FOR TREATING DISORDERS AMELIORATED BY MUSCARINIC RECEPTOR ACTIVATION” (KARUNA THERAPEUTICS, INC., priority 2022, published 2025).
Like-named read-outs stand apart in the source and are kept apart here.

Key:
human M2 receptor = target: T1, human M2 receptor (Homo sapiens, UniProt P08172); experiment: SPA GTP (GTPgS) binding curve shift assay, M2; assay type: biochemical
T1 sequence (P08172 1-466): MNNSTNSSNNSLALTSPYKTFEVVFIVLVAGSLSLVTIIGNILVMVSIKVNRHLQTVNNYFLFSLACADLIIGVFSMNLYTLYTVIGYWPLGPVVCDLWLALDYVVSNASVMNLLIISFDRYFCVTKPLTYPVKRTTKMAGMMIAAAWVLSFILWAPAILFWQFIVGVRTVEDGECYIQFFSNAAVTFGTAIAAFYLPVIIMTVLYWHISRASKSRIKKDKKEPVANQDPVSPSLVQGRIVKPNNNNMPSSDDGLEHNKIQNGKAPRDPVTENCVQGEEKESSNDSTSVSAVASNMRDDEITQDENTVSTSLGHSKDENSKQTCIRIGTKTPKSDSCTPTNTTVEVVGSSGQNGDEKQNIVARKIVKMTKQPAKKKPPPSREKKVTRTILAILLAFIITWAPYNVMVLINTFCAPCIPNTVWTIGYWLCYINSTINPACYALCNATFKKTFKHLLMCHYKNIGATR
Experimental: (§1) Membranes were prepared for GTPgS binding assays from CHO-K1 cells stably expressing human M2 or human M4 receptors. Cells were grown in 5-layer cell culture flasks. Cells were washed with 50 mL of PBS and then dissociated with 0.05% trypsin. Dissociated cells were then collected by centrifugation at 650×g for 8 min at 4° C. Pellets were rewashed in PBS by centrifugation and resuspended in 30 mL of 20 mM HEPES, 10 mM EDTA, pH 7.4. After sitting on ice for 30 min, membranes were collected by centrifugation at 50000×g for 15 min at 4° C., resuspended in 30 mL of 20 mM HEPES, 0.1 mM EDTA, pH 7.4, and collected again by centrifugation. Pellets were then washed twice by centrifugation in 30 mL of 20 mM HEPES, pH 7.4, and stored at −80° C. until the day of the assay. On the day of the assay, pellets were thawed on ice and resuspended in 1 mL of 20 mM HEPES, pH 7.4, 10 mM MgCl2, and 100 mM NaCl using Dounce homogenization.
(§2) According to Promega guidelines, membrane protein concentration was determined by BCA protein assay (Promega, Madison, WI).
(§3) On the day of the assay, serial dilutions of test PAM compounds were brought up in assay buffer (20 mM HEPES, 10 mM MgCl2; see Table 4 for NaCl concentrations) at four times the final assay concentration. […] of membrane homogenates (containing […] of membrane protein) were prepared in assay buffer supplemented with GDP at 4× final assay concentration (see Table 4 for GDP concentrations) and dispensed into 96 well polypropylene, U-bottom Greiner plates. Membrane plates were incubated for 10 min at room temperature with gentle shaking. Then, 25 μL of test compounds were added to assay plates. Plates were then incubated, with shaking, for an additional 10-15 min. Then, 25 μL of diluted agonists serially diluted in assay buffer at 4× final assay concentration was added to assay plates. Plates were then incubated, with shaking, for an additional 10-15 min. Next, […] of 0.4 nM ^35S-GTP (Perkin Elmer, Waltham, MA) in assay buffer was added to assay mixtures. The binding reaction was left on the shaker for 1 h at room temperature. Membranes in assay reactions were then transferred to GF/C filter plates (UniFilter, Perkin Elmer) and washed three times using FilterMate Harvester (Perkin Elmer) with cold assay buffer containing no GDP. Filter plates were then dried at 40° C. overnight, and […] of Beta Plate Scintillation liquid was added. Plates were top and bottom sealed before being read on the TopCount scintillation counter (Perkin Elmer, Waltham, MA).
(§4) Raw data for all assays was transmitted directly from plate readers into the Beacon database for processing. All assay plates contained positive and negative control wells for data normalization and scaling. […] All control wells contained DMSO at a final assay concentration that matched the test compound wells.
(§5) For GTPgS assays, the negative control wells were defined as 0% response. The highest response in a plate was scaled to 1, representing 100% response. Data from test compound wells was scaled to these controls and are reported as % control values. This was done to allow for subsequent GraphPad cooperativity analysis, setting the maximal response at no more than 1.

human M4 receptor = target: T2, human M4 receptor (Homo sapiens, UniProt P08173); experiment: SPA GTP (GTPgS) binding curve shift assay, M4; assay type: biochemical
T2 construct: expressed in transfected cells
T2 sequence (P08173 1-479): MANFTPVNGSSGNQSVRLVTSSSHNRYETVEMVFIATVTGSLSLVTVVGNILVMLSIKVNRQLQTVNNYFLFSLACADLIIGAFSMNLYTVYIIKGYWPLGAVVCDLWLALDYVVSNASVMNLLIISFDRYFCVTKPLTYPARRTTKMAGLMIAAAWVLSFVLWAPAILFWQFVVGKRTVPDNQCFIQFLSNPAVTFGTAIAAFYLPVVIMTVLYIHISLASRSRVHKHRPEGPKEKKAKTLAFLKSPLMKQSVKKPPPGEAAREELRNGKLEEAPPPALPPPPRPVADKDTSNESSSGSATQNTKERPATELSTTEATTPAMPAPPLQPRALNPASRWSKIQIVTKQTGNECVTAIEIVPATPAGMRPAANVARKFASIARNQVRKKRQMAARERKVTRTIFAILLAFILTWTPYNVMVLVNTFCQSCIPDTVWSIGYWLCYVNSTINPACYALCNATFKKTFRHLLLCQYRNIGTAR
Experimental: as §1, §2, §3, §4, §5

Question: How did the Emax (human M2 receptor) turn out when `CCCCCCOc1nsnc1C1=CCCN(C)C1` [xanomeline, reference compound] was run?
Answer: 74.7%

Question: And the Emax (human M2 receptor; M2, Emraclidine concentration 0 nM)?
Answer: 36.2%

Question: And the Emax (human M2 receptor; M2, Emraclidine concentration 41.2 nM, read-out: Emax)?
Answer: 48.2%

Question: And the Emax (human M2 receptor; M2, Emraclidine concentration 123 nM, read-out: Emax)?
Answer: 49.8%

Question: And the Emax at […] (human M2 receptor; M2, Emraclidine concentration 370 nM)?
Answer: 41.5%

Question: What about the Emax (human M2 receptor; M2, Emraclidine concentration 1110 nM, read-out: Emax) of the same compound?
Answer: 59.6%

Question: What about the Emax (human M2 receptor; M2, Emraclidine concentration 3330 nM, read-out: Emax) of the same compound?
Answer: 64.1%

Question: What about the Emax at […] (human M2 receptor; M2, Emraclidine concentration […]) of the same compound?
Answer: 41.7%

Question: And the “τ (agonist pharmacology)” value (human M2 receptor; M2, M4 PAM Emraclidine)?
Answer: 0.0

Question: And the “τ (agonist pharmacology)” value (human M2 receptor; M2, M4 PAM MK-4710)?
Answer: 0.0

Question: And the Emax (human M2 receptor; M2, MK-4710 concentration 0 nM)?
Answer: 55.6%

Question: And the Emax (human M2 receptor; M2, MK-4710 concentration 41.2 nM, read-out: Emax)?
Answer: 65.3%

Question: And the Emax at […] (human M2 receptor; M2, MK-4710 concentration 370 nM)?
Answer: 55.5%

Question: What about the Emax (human M2 receptor; M2, MK-4710 concentration 1110 nM, read-out: Emax) of the same compound?
Answer: 74.1%

Question: And the Emax (human M2 receptor; M2, MK-4710 concentration 3330 nM, read-out: Emax)?
Answer: 75.7%

Question: And the Emax at […] (human M2 receptor; M2, MK-4710 concentration […])?
Answer: 60.1%

Question: And the Emax (human M4 receptor; Emraclidine concentration 0 nM)?
Answer: 27.2%

Question: And the Emax (human M4 receptor; Emraclidine concentration 41.2 nM, read-out: Emax)?
Answer: 31.9%

Question: What about the Emax (human M4 receptor; Emraclidine concentration 123 nM, read-out: Emax) of the same compound?
Answer: 38.1%

Question: What about the Emax at […] (human M4 receptor; Emraclidine concentration 370 nM) of the same compound?
Answer: 60%

Question: And the Emax (human M4 receptor; Emraclidine concentration 1110 nM, read-out: Emax)?
Answer: 78.7%

Question: And the Emax (human M4 receptor; Emraclidine concentration 3330 nM, read-out: Emax)?
Answer: 89.4%

Question: And the Emax at […] (human M4 receptor; Emraclidine concentration […])?
Answer: 28.7%

Question: And the “τ (agonist pharmacology)” value (human M4 receptor; M4 PAM Emraclidine)?
Answer: 1.4

Question: What about the Emax (human M4 receptor; MK-4710 concentration 0 nM) of the same compound?
Answer: 19.7%

Question: What about the Emax (human M4 receptor; MK-4710 concentration 41.2 nM, read-out: Emax) of the same compound?
Answer: 29.7%

Question: And the Emax (human M4 receptor; MK-4710 concentration 123 nM, read-out: Emax)?
Answer: 38.5%

Question: And the Emax at […] (human M4 receptor; MK-4710 concentration 370 nM)?
Answer: 55%

Question: What about the Emax (human M4 receptor; MK-4710 concentration 1110 nM, read-out: Emax) of the same compound?
Answer: 70.6%

Question: And the Emax (human M4 receptor; MK-4710 concentration 3330 nM, read-out: Emax)?
Answer: 80.5%

Question: What about the Emax at […] (human M4 receptor; MK-4710 concentration […]) of the same compound?
Answer: 25.1%
